From patent US20260193293A1, “PEPTIDES CAPABLE OF INHIBITING PROTEIN-PROTEIN INTERACTIONS AT GABAB1A SUBUNIT AND USES THEREOF” (UNIVERSITY OF COPENHAGEN, priority 2022, published 2026)
Like-named read-outs stand apart in the source and are kept apart here.

Experiments:
[1] = molecular target: Sushi domains (SD1/2) protein; test: Fluorescence polarization (FP) competition assay with AJAP-1probe, calculated Ki; format: binding
In short: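 Ki values were derived from IC50s (sigmoidal fits, ≥ triplicate), with probe Kd obtained by saturation titration of SD1/2. Peptides displaced a 25 nM TAMRA-labelled probe; polarization read at 530/580 nm in 1% BSA-containing PBS, pH 7.4, room temperature.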

[2] = test system: HeLa cell line stably expressing HaloTag-GFP fusion protein; test: Chloroalkane penetration assay (CAPA); format: in vitro ADME; conditions: cell membrane permeability, CA-tagged peptides, mean ± SEM, n ≥ 3
Description: The HeLa cell line used for CAPA assay was generated by Chenoweth and co-workers and provided by Kritzer and co-workers. The cells stably express a HaloTag-GFP fusion protein anchored through a mitochondria targeting peptide exposed to the cytosol. For CAPA, Hela cells were seeded using DMEM supplemented with FBS in a 96-well plate one day before the experiment at a density of 4×10^4 cells/well. Just before the assay, the growth media was aspirated off and replaced with Opti-MEM assay media (100 μL/well). DMSO stocks of peptides (10 mM) were diluted in Opti-MEM to prepare serial dilutions of peptides in a separate 96-well PCR plate ensuring the final concentration of DMSO was kept consistent and below 1%. Subsequently, 25 μL of peptide solution was added into each well and the plate was incubated for 4 h at 37° C. with 5% CO2. After aspirating the assay media off, cells were washed with fresh Opti-MEM (80 μL/well) for 15 min at rt. Following removal of the washing media, cells were incubated with 5 μM CA-TAMRA in Opti-MEM (50 μL/well) for 15 min. Non CATAMRA control wells were incubated with Opti-MEM alone (50 μL/well). […] After aspiration, cells were trypsinized using clear Trypsin (20 μL/well, 10 min at 37° C.), resuspended in PBS containing 2% FBS ([…]), and analyzed using a benchtop flow cytometer (Guava EasyCyte, EMD Millipore).

What does the source list for “DDDWIDWYDSDDDYGRKKRRQRRR [Peptide 16-Tat]”?
Ki ([1]; CPP tagged peptides overview, SD1/2 binding affinity, mean ± SEM, n ≥ 3, read-out: Ki): 71 ± 1 nM; Ki ([1]; Table 14, CPPs tagged peptides, read-out: Ki (nM) mean ± SEM): 70.5 ± 0.3 nM; CP50 [2]: 19 ± 0.4 µM
